# Assay results as given in patent US10251860B2, “Compounds for bone healing” (University of Pittsburgh—Of the Commonwealth System of …, priority 2015, dated 2019).
# Legend:
# [1] = test system: C57BL/6NTac mice, 9.5 Gy total body irradiation; assay: Total body irradiation survival (hematopoietic syndrome); type: in vivo, mouse
# Description: FIG. 13 is a graph of percent survival versus day, illustrating the in vivo mitigation of total body irradiation by MMS350. MMS350 was dissolved in water at a concentration of 2 mg/ml. C57BL/6NTac mice (n=15/group) were irradiated to 9.5 Gy total body irradiation and injected intraperitoneally with 10 mg/kg of MMS350 at 4 or 24 hours after irradiation. The mice were followed for the development of the hematopoietic syndrome at which time the mice were sacrificed.
# Mice were irradiated using JL Shepherd Mark 1 Model 68 irradiator to 9.25 total body irradiation dose or a Varian Linear Accelerator (Varian Medical Systems, Inc, Palo Alto, Calif.) to 20 Gy for pulmonary irradiation according to published methods (2, 10, 13).
# Mice were injected intra-peritoneally with MMS350 or JP4-039 (GS-nitroxide) in 50% cremphor/50% ethanol according to published methods. For long-term administration of MMS350, the drug was administered in water bottles with bottles changed every 7 days. The dose of drug per bottle was 100 μM MMS350 starting on day 88. The estimated total amount consumed by each animal daily was 10.9 μg based on a mouse drinking 5 ml of water per day. Chimeric mice irradiated to the thoracic cavity were placed 30 days later on MMS350 in water containing 100 mM MMS350. On day 88 after thoracic irradiation of non-chimeric mice, mice were placed on […] MMS350 in drinking water.
# [2] = test system: breast cancer cell line (MDA-MB-231); type: cell-based
# Source text: (§1) The cellular toxicity of sulfoxide 3 was further determined for a breast cancer cell line (MDA-MB-231) and a liver cell line (HepG2).
# [3] = test system: liver cell line (HepG2); type: cell-based
# Source text: as §1
structure (smiles),measurement,setting,value
"CC1(C[S+]([O-])CC2(C)COC2)COC1 [Compound 3, 3,3′-Sulfinylbis(methylene)bis(3-methyloxetane)]",survival,"[1]; 9.5 Gy TBI, 10 mg/kg intraperitoneally 4 hours after irradiation, p=0.0092",significantly increased survival
same,survival,"[1]; 9.5 Gy TBI, 10 mg/kg intraperitoneally 24 hours after irradiation, p=0.0097",significantly increased survival
same,protection and mitigation against total body irradiation,"[1]; intraperitoneal injection before or after 9.5 Gy TBI, C57BL/6 mice, n=15/group",both a protector when delivered prior to irradiation and mitigator when delivered after irradiation comparable to JP4-039
same,survival,"[1]; single dose 24 hours after 9.5 Gy TBI, C57BL/6/HNsd mice",significant improvement in survival
same,GI50,[2],~200 mM
same,GI50,[3],~200 mM
